# Where two headings read alike, the source gives them in different places.
# What was measured:
# Format in all cases: cell-based
# MDA-MB-231 = test: Real time cell proliferation, IncuCyte ZOOM, 72 hours
# T315I (Ba/F3) = biological target: T1, T315I (Ba/F3) (Homo sapiens, UniProt P00519, T315I, cells depend on it); test: Cancer cell proliferation inhibition, CCK-8, 72 hours; details: read-out: T315I (Ba/F3) IC50
# T1 construct: fused on or other part: P11274 (Breakpoint cluster region protein)
# Method: (§1) MTS assay was performed to evaluate the cancer cell proliferation inhibition (cancer cell apoptosis) effect of the compounds of examples of the present invention. Particularly, the assay was performed using the cancer cell lines GIST-T1, GIST-T1/816, GIST-430, GIST-430/654, GIST-R1, GIST-R3, M-NFS-60, RetParental (Ba/F3), Retwt (Ba/F3), RetV804M (Ba/F3), RET (LC2/ad-CDC6), FYN (MCP-1), FYN (FN), MDA-MB-231, Huh7, K562, T315I(Ba/F3), SK-MEL-28 and A375. Cell culture was performed using a medium suitable for each cell line.
# (§2) In the meantime, MDA-MB-231 and A375 cells were seeded in a 96well plate at the density of 2×10^3/100 μl/well, which stood for a day for attachment. The culture fluid was eliminated. After removing the culture medium, the medium was replaced with the culture medium containing the compounds of the present invention at 3-times serially diluted 9 concentrations (0.0015-10 μM) and the DMSO control, followed by incubation in a 37° C. CO2 incubator for 72 hours. On the other hand, K-562 and Ba/F3-T315I cells were seeded in a 96-well plate at the density of 1×10^4/90 μl/well. The plate containing K-562 cells was added with the culture medium containing the compounds of the present invention at 3-times serially diluted 9 concentrations (0.015-100 μM) and the DMSO control (10 μl/well). The plate containing Ba/F3-T315I cells was added with the culture medium containing the compounds of the present invention at 5-times serially diluted 9 concentrations (0.000256-100 μM) and the DMSO control (10 μl/well). The final concentration was made 0-10 μM and then the cells were cultured in a 37° C. CO2 incubator for 72 hours.
# (§3) A375, K-562 and Ba/F3-T315I cells were added with CCK-8 solution at the concentration of 10 μl/well, followed by orbital shaking for 30 seconds. Then, the cells were cultured in a 37° C. CO2 incubator for 2 hours. OD450 was measured by using a microplate reader. The OD value of the well treated with the culture medium and CCK-8 solution alone was subtracted from the OD value measured above, followed by calculation of IC50 using GraphPad Prism 6 software.
# K562 = test: as above
# Method: as §1, §2, §3
# A375 = test: as above
# Method: as §1, §2, §3
# Huh7 = test: Cancer cell proliferation inhibition, MTS assay, 72 hours; details: Homo sapiens, Huh-7
# Method: as §1
# (§4) Other cell lines were seeded in a 96-well plate containing the corresponding medium appropriate for each cell line at the density of 3,000 cells/well, followed by culture in a 5% CO2 and 37° C. incubator for 24 hours. The compounds of examples of the present invention were added to each well at the concentration of from the highest volume of 50 μM to every step of serial dilution. The solvent control, dimethylsulfoxide (DMSO), was treated at the same concentration of 0.05% (v/v) as the volume used for the treatment of the compounds above. Each cell line was cultured for 72 hours. To investigate the cell viability, the MTS and PMS (phenazine methosulfate) mixture provided in CellTiter 96® AQuous Non-Radioactive Cell Proliferation Assay Kit (Promega) was added to each cell culture medium, followed by additional culture at 37° C. for 2 hours. Then, OD450 was measured. Based on OD of the solvent control cells not treated with any compounds of the present invention, the cell proliferation inhibition rate was calculated according to the treatment concentration of each compound. At this time, the concentration of each compound that was able to inhibit cancer cell proliferation up to 50% was determined as IC50 (uM). IC50 of each compound was determined with three data sets and calculated by using Prism softwater (version 6.01, GraphPad).
# RET (LC2/ad-CDC6) = test: as above; details: 72 h
# Method: as §1, §4
"IC50 (MDA-MB-231; Homo sapiens, MDA-MB-231, 72 h)",GI50 (T315I (Ba/F3)),"IC50 (K562; Homo sapiens, K562, 72 h)","IC50 (A375; Homo sapiens, A-375, 72 h)",IC50 (Huh7),IC50 (RET (LC2/ad-CDC6)),IC50 (MDA-MB-231),IC50 (K562),IC50 (A375),Compound
> 10000 nM,663 nM,2 nM,> 10000 nM,1800 nM,–,–,–,–,"Cc1ccc(C(=O)Nc2ccc3ncsc3c2)cc1C#Cc1cnc2c(Nc3cnn(C)c3)cccn12 [Example 37, N-(benzo[d]thiazol-6-yl)-4-methyl-3-((8-((1-methyl-1H-pyrazol-4-yl)amino)imidazo[1,2-a]pyridin-3-yl)ethynyl)benzamide]"
770 nM,133 nM,19 nM,668 nM,247 nM,–,–,–,–,"Cc1ccc(C(=O)Nc2ccc(CN3CCCN(C)CC3)c(C(F)(F)F)c2)cc1C#Cc1cnc2c(Nc3cnn(C(C)C)c3)cccn12 [Example 38, 3-((8-((1-isopropyl-1H-pyrazol-4-yl)amino)imidazo[1,2-a]pyridin-3-yl)ethynyl)-4-methyl-N-(4-((4-methyl-1,4-diazepin-1-yl)methyl)-3-(trifluoromethyl)phenyl)benzamide]"
1460 nM,238 nM,43 nM,1520 nM,457 nM,–,–,–,–,"Cc1ccc(C(=O)Nc2ccc(CN3CCCN(C)CC3)c(C(F)(F)F)c2)cc1C#Cc1cnc2c(Nc3cnn(CCCN(C)C)c3)cccn12 [Example 39, 3-((8-((1-(3-(dimethylamino)propyl)-1H-pyrazol-4-yl)amino)imidazo[1,2-a]pyridin-3-yl)ethynyl)-4-methyl-N-(4-((4-methyl-1,4-diazepin-1-yl)methyl)-3-(trifluoromethyl)phenyl)benzamide]"
816 nM,145 nM,2 nM,720 nM,–,> 10 nM,–,–,–,"Cc1cc(Nc2cccn3c(C#Cc4cc(C(=O)Nc5ccc(CN6CCC(N(C)C)C6)c(C(F)(F)F)c5)ccc4C)cnc23)no1 (stereo not shown) [Example 45, N-(4-((3-(dimethylamino)pyrrolidin-1-yl)methyl)-3-(trifluoromethyl)phenyl)-4-methyl-3-((8-((5-methylisoxazol-3-yl)amino)imidazo[1,2-a]pyridin-3-yl)ethynyl)benzamide]"
273 nM,6.27 nM,7 nM,250 nM,–,> 10 nM,–,–,–,"COCCCn1cc(Nc2cccn3c(C#Cc4cc(C(=O)Nc5ccc(CN6CCN(C)[C@@H](C)C6)c(C(F)(F)F)c5)ccc4C)cnc23)cn1 [Example 46, (S)—N-(4-((3,4-dimethylpiperazin-1-yl)methyl)-3-(trifluoromethyl)phenyl)-3-((8-((1-(3-methoxypropyl)-1H-pyrazol-4-yl)amino)imidazo[1,2-a]pyridin-3-yl)ethynyl)-4-methylbenzamide]"
382 nM,86.3 nM,< 1 nM,406 nM,–,> 10 nM,–,–,–,"Cc1ccc(C(=O)Nc2ccc(CN3CCN(C)[C@@H](C)C3)c(C(F)(F)F)c2)cc1C#Cc1cnc2c(Nc3cnn(C(C)C)c3)cccn12 [Example 48, (S)—N-(4-((3,4-dimethylpiperazin-1-yl)methyl)-3-(trifluoromethyl)phenyl)-3-((8-((1-isopropyl-1H-pyrazol-4-yl)amino)imidazo[1,2-a]pyridin-3-yl)ethynyl)-4-methylbenzamide]"
513 nM,217 nM,5 nM,1020 nM,–,> 10 nM,–,–,–,"Cc1ccc(C(=O)Nc2ccc(CN3CCN(C)[C@@H](C)C3)c(C(F)(F)F)c2)cc1C#Cc1cnc2c(Nc3cnn(CCCN(C)C)c3)cccn12 [Example 49, (S)-3-((8-((1-(3-(dimethylamino)propyl)-1H-pyrazol-4-yl)amino)imidazo[1,2-a]pyridin-3-yl)ethynyl)-N-(4-((3,4-dimethylpiperazin-1-yl)methyl)-3-(trifluoromethyl)phenyl)-4-methylbenzamide]"
324 nM,2.67 nM,< 1 nM,285 nM,–,> 10 nM,–,–,–,"CCn1cc(Nc2cccn3c(C#Cc4cc(C(=O)Nc5ccc(CN6CC[C@@H](N(C)C)C6)c(C(F)(F)F)c5)ccc4C)cnc23)cn1 [Example 53, (R)—N-(4-((3-(dimethylamino)pyrrolidin-1-yl)methyl)-3-(trifluoromethyl)phenyl)-3-((8-((1-ethyl-1H-pyrazol-4-yl)amino)imidazo[1,2-a]pyridin-3-yl)ethynyl)-4-methylbenzamide]"
388 nM,30.9 nM,< 1 nM,454 nM,–,> 10 nM,–,–,–,"CCn1cc(Nc2cccn3c(C#Cc4cc(C(=O)Nc5ccc(CN6CC[C@H](N(C)C)C6)c(C(F)(F)F)c5)ccc4C)cnc23)cn1 [Example 54, (S)—N-(4-((3-(dimethylamino)pyrrolidin-1-yl)methyl)-3-(trifluoromethyl)phenyl)-3-((8-((1-ethyl-1H-pyrazol-4-yl)amino)imidazo[1,2-a]pyridin-3-yl)ethynyl)-4-methylbenzamide]"
> 10000 nM,1140 nM,< 1 nM,> 10000 nM,–,> 10 nM,–,–,–,"CCn1cc(Nc2cccn3c(C#Cc4cc(C(=O)Nc5ccc(N6CCOCC6)c(F)c5)ccc4C)cnc23)cn1 [Example 56, 3-((8-((1-ethyl-1H-pyrazol-4-yl)amino)imidazo[1,2-a]pyridin-3-yl)ethynyl)-N-(3-fluoro-4-morpholinophenyl)-4-methylbenzamide]"
219 nM,–,< 1.5 nM,221 nM,33 nM,> 10 nM,–,–,–,COCCCn1cc(Nc2cccn3c(C#Cc4cc(C(=O)Nc5ccc(CN6CCN(C)CC6)c(C(F)(F)F)c5)ccc4C)cnc23)cn1 [Example 65]
4730 nM,25.2 nM,6 nM,–,955 nM,–,–,–,–,COCCn1cc(Nc2cccn3c(C#Cc4cc(C(=O)Nc5cc(-n6cnc(C)c6)cc(C(F)(F)F)c5)ccc4C)cnc23)cn1 [Example 71]
916 nM,421 nM,< 1.5 nM,–,–,–,–,–,–,CCN1CCN(Cc2ccc(NC(=O)c3ccc(C)c(C#Cc4cnc5c(Nc6cnn(CCN(C)C)c6)cccn45)c3)cc2C(F)(F)F)CC1 [Example 73]
> 10000 nM,5410 nM,763 nM,> 10000 nM,5650 nM,–,–,–,–,Cc1ccc(NC(=O)C2(C(=O)Nc3ccc(F)cc3)CC2)cc1C#Cc1cnc2c(Nc3cnn(C)c3)cccn12 [Example 79]
–,190 nM,–,–,–,–,1730 nM,43 nM,1960 nM,"Cc1ccc(C(=O)Nc2ccc(CN3CCN(C)[C@H](C)C3)c(C(F)(F)F)c2)cc1C#Cc1cnc2c(Nc3cnn(C(C)C)c3)cccn12 [Example 81, (R)—N-(4-((3,4-dimethylpiperazin-1-yl)methyl)-3-(trifluoromethyl)phenyl)-3-((8-((1-isopropyl-1H-pyrazol-4-yl)amino)imidazo[1,2-a]pyridin-3-yl)ethynyl)-4-methylbenzamide]"
> 10000 nM,3080 nM,290 nM,> 10000 nM,–,> 10 nM,–,–,–,"Cc1ccc(NC(=O)Nc2cc(C(C)(C)C(F)(F)F)on2)cc1C#Cc1cnc2c(Nc3cnn(C(C)C)c3)cccn12 [Example 85, 1-(3-((8-((1-isopropyl-1H-pyrazol-4-yl)amino)imidazo[1,2-a]pyridin-3-yl)ethynyl)-4-methylphenyl)-3-(5-(1,1,1-trifluoro-2-methylpropan-2-yl)isoxazol-3-yl)urea]"

# Reference: patent publication US10870647B2, “Imidazopyridine derivative, method for preparing same, and pharmaceutical composition containing same as active ingredient for preventing or treating cancer” (DAEGU-GYEONGBUK MEDICAL INNOVATION FOUNDATION, priority 2016, dated 2020)
